How the values were obtained:
Test in all cases: relative viability (nuclei count vs DMSO), 5 days (fraction); higher = more cells survive
[1] = compound: CN(C)C[C@@H]1CCn2cc(c3ccccc32)C2=C(C(=O)NC2=O)c2cn(c3ccccc23)CCO1 [Ruboxistaurin] + C[C@@H](Oc1cc(-c2cnn(C3CCNCC3)c2)cnc1N)c1c(Cl)ccc(F)c1Cl [Crizotinib] (partner 1 µM)
How it was run: (§1)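 Relative viability equals treated-well nuclei counts divided by vehicle-well nuclei counts. Counts came from 4× images of lung cancer cell lines grown in 1536-well plates for 5 days after pin-tool dosing on the day after seeding. Dosing used one drug alone or a fixed anchor-drug dose plus five library-drug doses (not always all listed) in √10 steps, and values are medians of duplicate plates.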

[2] = compound: CN(C)C[C@@H]1CCn2cc(c3ccccc32)C2=C(C(=O)NC2=O)c2cn(c3ccccc23)CCO1 [Ruboxistaurin] + CS(=O)(=O)N1CCN(Cc2cc3nc(-c4cccc5[nH]ncc45)nc(N4CCOCC4)c3s2)CC1 [Pictilisib] (partner 1 µM)
How it was run: as §1

[3] = compound: CN(C)C[C@@H]1CCn2cc(c3ccccc32)C2=C(C(=O)NC2=O)c2cn(c3ccccc23)CCO1 [Ruboxistaurin] + CS(=O)(=O)CCNCc1ccc(-c2ccc3ncnc(Nc4ccc(OCc5cccc(F)c5)c(Cl)c4)c3c2)o1 [Lapatinib] (partner 2 µM)
How it was run: as §1

[4] = compound: CN(C)C[C@@H]1CCn2cc(c3ccccc32)C2=C(C(=O)NC2=O)c2cn(c3ccccc23)CCO1 [Ruboxistaurin] + N=C(N)NC(=N)NCCc1ccccc1 [Phenformin] (partner 250 µM)
How it was run: as §1

[5] = compound: CN(C)C[C@@H]1CCn2cc(c3ccccc32)C2=C(C(=O)NC2=O)c2cn(c3ccccc23)CCO1 [Ruboxistaurin] + CC1(C)CCC(c2ccc(Cl)cc2)=C(CN2CCN(c3ccc(C(=O)NS(=O)(=O)c4ccc(N[C@H](CCN5CCOCC5)CSc5ccccc5)c(S(=O)(=O)C(F)(F)F)c4)cc3)CC2)C1 [Navitoclax] (partner 0.5 µM)
How it was run: as §1

[6] = compound: CN(C)C[C@@H]1CCn2cc(c3ccccc32)C2=C(C(=O)NC2=O)c2cn(c3ccccc23)CCO1 [Ruboxistaurin] + COc1cc2c(Oc3ccc(NC(=O)C4(C(=O)Nc5ccc(F)cc5)CC4)cc3F)ccnc2cc1OCCCN1CCOCC1 [Foretinib] (partner 0.25 µM)
How it was run: as §1

[7] = compound: CN(C)C[C@@H]1CCn2cc(c3ccccc32)C2=C(C(=O)NC2=O)c2cn(c3ccccc23)CCO1 [Ruboxistaurin] + Cc1nc(NC(=O)N2CCC[C@H]2C(N)=O)sc1-c1ccnc(C(C)(C)C(F)(F)F)c1 [Alpelisib] (partner 2 µM)
How it was run: as §1

[8] = compound: CN(C)C[C@@H]1CCn2cc(c3ccccc32)C2=C(C(=O)NC2=O)c2cn(c3ccccc23)CCO1 [Ruboxistaurin] + C[C@]1(O)C[C@@H](c2nc(-c3ccc4ccc(-c5ccccc5)nc4c3)c3c(N)nccn32)C1 [Linsitinib] (partner 1 µM)
How it was run: as §1

[9] = compound: CN(C)C[C@@H]1CCn2cc(c3ccccc32)C2=C(C(=O)NC2=O)c2cn(c3ccccc23)CCO1 [Ruboxistaurin] + O=C(c1cc(Cc2n[nH]c(=O)c3ccccc23)ccc1F)N1CCN(C(=O)C2CC2)CC1 [Olaparib] (partner 8 µM)
How it was run: as §1

[10] = compound: CN(C)C[C@@H]1CCn2cc(c3ccccc32)C2=C(C(=O)NC2=O)c2cn(c3ccccc23)CCO1 [Ruboxistaurin] + Nc1ncn([C@H]2C[C@H](O)[C@@H](CO)O2)c(=O)n1 [Decitabine] (partner 2 µM)
How it was run: as §1

[11] = compound: CN(C)C[C@@H]1CCn2cc(c3ccccc32)C2=C(C(=O)NC2=O)c2cn(c3ccccc23)CCO1 [Ruboxistaurin]
How it was run: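 Five library-drug doses spaced by √10 were pinned onto vehicle-anchored 1536-well plates of lung cancer cell lines that had been kept overnight at 37 °C. Cells went 5 days without medium change, then were fixed, permeabilised and Hoechst-stained together, imaged at 4× and counted by MetaXpress. Viability is the ratio of treated-well to vehicle-well nuclei, taken as a median over plates. Plates required control CV below 25% and at least one doubling.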

[12] = compound: CN(C)C[C@@H]1CCn2cc(c3ccccc32)C2=C(C(=O)NC2=O)c2cn(c3ccccc23)CCO1 [Ruboxistaurin] + CC(C)C[C@H](NC(=O)[C@H](Cc1ccccc1)NC(=O)c1cnccn1)B(O)O [Bortezomib] (partner 0.002 µM)
How it was run: as §1

A549
relative viability ([1]; first compound 0.08 µM): 0.751 | relative viability ([1]; first compound 0.8 µM): 0.631 | relative viability ([1]; first compound 2.53 µM): 0.862 | relative viability ([1]; first compound 8 µM): 0.679 | relative viability ([2]; first compound 0.08 µM): 0.567 | relative viability ([2]; first compound 0.8 µM): 0.423 | relative viability ([2]; first compound 2.53 µM): 0.385 | relative viability ([2]; first compound 8 µM): 0.223 | relative viability ([3]; first compound 0.08 µM): 1.03 | relative viability ([3]; first compound 0.8 µM): 0.838 | relative viability ([3]; first compound 2.53 µM): 0.866 | relative viability ([3]; first compound 8 µM): 0.753 | relative viability ([4]; first compound 0.08 µM): 0.199 | relative viability ([4]; first compound 0.8 µM): 0.162 | relative viability ([4]; first compound 2.53 µM): 0.221 | relative viability ([4]; first compound 8 µM): 0.175 | relative viability ([5]; first compound 0.08 µM): 1.23 | relative viability ([5]; first compound 0.8 µM): 1.18 | relative viability ([5]; first compound 2.53 µM): 1.16 | relative viability ([5]; first compound 8 µM): 0.99 | relative viability ([6]; first compound 0.08 µM): 1.04 | relative viability ([6]; first compound 0.8 µM): 0.935 | relative viability ([6]; first compound 2.53 µM): 1.06 | relative viability ([6]; first compound 8 µM): 0.962 | relative viability ([7]; first compound 0.08 µM): 0.75 | relative viability ([7]; first compound 0.8 µM): 0.562 | relative viability ([7]; first compound 2.53 µM): 0.944 | relative viability ([7]; first compound 8 µM): 0.501 | relative viability ([8]; first compound 0.08 µM): 0.685 | relative viability ([8]; first compound 0.8 µM): 0.562 | relative viability ([8]; first compound 2.53 µM): 0.61 | relative viability ([8]; first compound 8 µM): 0.458 | relative viability ([9]; first compound 0.08 µM): 0.27 | relative viability ([9]; first compound 0.8 µM): 0.273 | relative viability ([9]; first compound 2.53 µM): 0.415 | relative viability ([9]; first compound 8 µM): 0.381 | relative viability ([10]; first compound 0.08 µM): 0.264 | relative viability ([10]; first compound 0.8 µM): 0.217 | relative viability ([10]; first compound 2.53 µM): 0.307 | relative viability ([10]; first compound 8 µM): 0.305 | relative viability ([11]; 0.08 µM): 1.05 | relative viability ([11]; 0.8 µM): 0.9 | relative viability ([11]; 2.53 µM): 1 | relative viability ([11]; 8 µM): 0.83

Calu-6
relative viability ([1]; first compound 0.08 µM): 0.899 | relative viability ([1]; first compound 0.8 µM): 0.697 | relative viability ([1]; first compound 2.53 µM): 0.807 | relative viability ([1]; first compound 8 µM): 0.822 | relative viability ([2]; first compound 0.08 µM): 0.94 | relative viability ([2]; first compound 0.8 µM): 0.848 | relative viability ([2]; first compound 2.53 µM): 0.795 | relative viability ([2]; first compound 8 µM): 0.607 | relative viability ([3]; first compound 0.08 µM): 1.15 | relative viability ([3]; first compound 0.8 µM): 1.02 | relative viability ([3]; first compound 2.53 µM): 1.08 | relative viability ([3]; first compound 8 µM): 0.933 | relative viability ([12]; first compound 0.08 µM): 1.12 | relative viability ([12]; first compound 0.8 µM): 0.948 | relative viability ([12]; first compound 2.53 µM): 1.1 | relative viability ([12]; first compound 8 µM): 1.17 | relative viability ([5]; first compound 0.08 µM): 0.967 | relative viability ([5]; first compound 0.8 µM): 0.776 | relative viability ([5]; first compound 2.53 µM): 0.862 | relative viability ([5]; first compound 8 µM): 1.01 | relative viability ([6]; first compound 0.08 µM): 0.949 | relative viability ([6]; first compound 0.8 µM): 0.848 | relative viability ([6]; first compound 2.53 µM): 0.93 | relative viability ([6]; first compound 8 µM): 0.893 | relative viability ([7]; first compound 0.08 µM): 0.95 | relative viability ([7]; first compound 0.8 µM): 0.897 | relative viability ([7]; first compound 2.53 µM): 0.981 | relative viability ([7]; first compound 8 µM): 0.809 | relative viability ([8]; first compound 0.08 µM): 0.978 | relative viability ([8]; first compound 0.8 µM): 0.804 | relative viability ([8]; first compound 2.53 µM): 0.913 | relative viability ([8]; first compound 8 µM): 0.942 | relative viability ([9]; first compound 0.08 µM): 0.635 | relative viability ([9]; first compound 0.8 µM): 0.564 | relative viability ([9]; first compound 2.53 µM): 0.669 | relative viability ([9]; first compound 8 µM): 0.585 | relative viability ([11]; 0.08 µM): 1.07 | relative viability ([11]; 0.8 µM): 0.951 | relative viability ([11]; 2.53 µM): 1.06 | relative viability ([11]; 8 µM): 0.982

EBC-1
relative viability ([1]; first compound 0.08 µM): 0.19 | relative viability ([1]; first compound 0.8 µM): 0.198 | relative viability ([1]; first compound 2.53 µM): 0.17 | relative viability ([1]; first compound 8 µM): 0.167 | relative viability ([2]; first compound 0.08 µM): 0.372 | relative viability ([2]; first compound 0.8 µM): 0.278 | relative viability ([2]; first compound 2.53 µM): 0.296 | relative viability ([2]; first compound 8 µM): 0.215 | relative viability ([3]; first compound 0.08 µM): 0.215 | relative viability ([3]; first compound 0.8 µM): 0.216 | relative viability ([3]; first compound 2.53 µM): 0.2 | relative viability ([3]; first compound 8 µM): 0.201 | relative viability ([12]; first compound 0.08 µM): 0.587 | relative viability ([12]; first compound 0.8 µM): 0.5 | relative viability ([12]; first compound 2.53 µM): 0.437 | relative viability ([12]; first compound 8 µM): 0.454 | relative viability ([5]; first compound 0.08 µM): 0.527 | relative viability ([5]; first compound 0.8 µM): 0.308 | relative viability ([5]; first compound 2.53 µM): 0.381 | relative viability ([5]; first compound 8 µM): 0.358 | relative viability ([6]; first compound 0.08 µM): 0.102 | relative viability ([6]; first compound 0.8 µM): 0.118 | relative viability ([6]; first compound 2.53 µM): 0.121 | relative viability ([6]; first compound 8 µM): 0.102 | relative viability ([7]; first compound 0.08 µM): 0.82 | relative viability ([7]; first compound 0.8 µM): 0.692 | relative viability ([7]; first compound 2.53 µM): 0.741 | relative viability ([7]; first compound 8 µM): 0.706 | relative viability ([8]; first compound 0.08 µM): 1.02 | relative viability ([8]; first compound 0.8 µM): 0.691 | relative viability ([8]; first compound 2.53 µM): 0.89 | relative viability ([8]; first compound 8 µM): 1.04 | relative viability ([9]; first compound 0.08 µM): 0.763 | relative viability ([9]; first compound 0.8 µM): 0.558 | relative viability ([9]; first compound 2.53 µM): 0.663 | relative viability ([9]; first compound 8 µM): 0.447 | relative viability ([11]; 0.08 µM): 1.13 | relative viability ([11]; 0.8 µM): 0.96 | relative viability ([11]; 2.53 µM): 0.97 | relative viability ([11]; 8 µM): 0.932
